# According to patent US20030008309A1, “Microarrays and methods for evaluating activity of compounds having estrogen-like activity” (National Institute of Advanced Industrial Science and …, priority 2000, published 2003):
# Tested on: MCF-7 cells
# Assay: Microarray evaluation of estrogen-like activity (expression levels of estrogen-responsive genes/ESTs, Cy3/Cy5) in MCF-7 cells
compound,measurement,setting,value
"Clc1cc2c(cc1Cl)Oc1cc(Cl)c(Cl)cc1O2 [dioxin, 2,3,7,8-tetrachlorodibenzo-p-dioxin]",evaluation value considering weighting factor (K),,32.90
same,"Σ(E(example)n), summation value of expression levels","10 nM treatment, n=1 to 203, independently determined",207.49
same,"evaluation value = Σ[|log{BDE(A)n/BDE(Estrogen)n}|], n=1 to 203",listed as example 2,46.19
